# From patent publication US12233081B2, “Hygromycin a compounds and methods of treating spirochete diseases” (priority 2018, dated 2025)
# Like-named read-outs stand apart in the source and are kept apart here.
# Experiments:
# gut microbiome [1] = conditions: mouse, in vivo
# Treponema pallidum = experiment: microbroth dilution MIC; format: cell-based
# gut microbiome [2] = experiment: gut microbiome 16S rRNA sequencing of stool of infected, treated mice; conditions: IP 50 mg/kg every 12 hours for 5 days
smiles,measurement,setting,value
CC(=O)[C@H]1O[C@@H](Oc2ccc(/C=C(\C)C(=O)N[C@@H]3[C@H](O)[C@@H](O)[C@H]4OCO[C@H]4[C@@H]3O)cc2O)[C@@H](O)[C@@H]1O [Hygromycin A],Camobacteriaceae change in percent relative abundance,"gut microbiome [1]; C3H, ip, 50 mg/kg, 5 days",−0.001%
same,Chitinophagaceae change in percent relative abundance,"gut microbiome [1]; C3H, ip, 50 mg/kg, 5 days",0.000%
same,Christensenellaceae change in percent relative abundance,"gut microbiome [1]; C3H, ip, 50 mg/kg, 5 days",0.000%
same,Clostridiaceae change in percent relative abundance,"gut microbiome [1]; C3H, ip, 50 mg/kg, 5 days",−0.066%
same,Clostridiales change in percent relative abundance,"gut microbiome [1]; C3H, ip, 50 mg/kg, 5 days",−0.099%
same,Clostridiales family xi. incertae sedis change in percent relative abundance,"gut microbiome [1]; C3H, ip, 50 mg/kg, 5 days",−0.047%
same,Clostridiales family xiii. incertae sedis change in percent relative abundance,"gut microbiome [1]; C3H, ip, 50 mg/kg, 5 days",−0.013%
same,Coriobacteriaceae change in percent relative abundance,"gut microbiome [1]; C3H, ip, 50 mg/kg, 5 days",0.014%
same,overall disruption to the gut microbiome,gut microbiome [1],considerably less severe
same,Acholeplasmataceae change in percent relative abundance,"gut microbiome [1]; ip, 50 mg/kg",0.003%
same,Aerococcaceae change in percent relative abundance,"gut microbiome [1]; ip, 50 mg/kg",0.001%
same,Anaerolineaceae change in percent relative abundance,"gut microbiome [1]; ip, 50 mg/kg",0.000%
same,Anaeroplasmataceae change in percent relative abundance,"gut microbiome [1]; ip, 50 mg/kg",−0.007%
same,Anaplasmataceae change in percent relative abundance,"gut microbiome [1]; ip, 50 mg/kg",0.000%
same,Aspergillaceae change in percent relative abundance,"gut microbiome [1]; ip, 50 mg/kg",0.000%
same,Asteraceae change in percent relative abundance,"gut microbiome [1]; ip, 50 mg/kg",0.001%
same,Bacillaceae change in percent relative abundance,"gut microbiome [1]; ip, 50 mg/kg",−0.021%
same,Bacillales change in percent relative abundance,"gut microbiome [1]; ip, 50 mg/kg",−0.108%
same,Bacteroidaceae change in percent relative abundance,"gut microbiome [1]; ip, 50 mg/kg",−14.397%
same,Bifidobacteriaceae change in percent relative abundance,"gut microbiome [1]; ip, 50 mg/kg",0.000%
same,Candidatus saccharibacteria change in percent relative abundance,"gut microbiome [1]; ip, 50 mg/kg",−0.022%
same,Corynebacteriaceae change in percent relative abundance,"gut microbiome [1]; ip, 50 mg/kg",0.000%
same,Cytophagaceae change in percent relative abundance,"gut microbiome [1]; ip, 50 mg/kg",0.000%
same,Deferribacteraceae change in percent relative abundance,"gut microbiome [1]; ip, 50 mg/kg",0.368%
same,Defluviitaleaceae change in percent relative abundance,"gut microbiome [1]; ip, 50 mg/kg",−0.001%
same,Desulfobacteraceae change in percent relative abundance,"gut microbiome [1]; ip, 50 mg/kg",0.000%
same,Enterobacteriaceae change in percent relative abundance,"gut microbiome [1]; ip, 50 mg/kg",1.250%
same,Enterococcaceae change in percent relative abundance,"gut microbiome [1]; ip, 50 mg/kg",0.036%
same,Erysipelotrichaceae change in percent relative abundance,"gut microbiome [1]; ip, 50 mg/kg",5.307%
same,Eubacteriaceae change in percent relative abundance,"gut microbiome [1]; ip, 50 mg/kg",0.037%
same,Fabaceae change in percent relative abundance,"gut microbiome [1]; ip, 50 mg/kg",0.000%
same,Flavobacteriaceae change in percent relative abundance,"gut microbiome [1]; ip, 50 mg/kg",0.000%
same,Fusobacteriaceae change in percent relative abundance,"gut microbiome [1]; ip, 50 mg/kg",0.000%
same,Gammaproteobacteria change in percent relative abundance,"gut microbiome [1]; ip, 50 mg/kg",−0.020%
same,Gloeobacteraceae change in percent relative abundance,"gut microbiome [1]; ip, 50 mg/kg",−0.020%
same,Gracilibacteraceae change in percent relative abundance,"gut microbiome [1]; ip, 50 mg/kg",−0.112%
same,Halomonadaceae change in percent relative abundance,"gut microbiome [1]; ip, 50 mg/kg",0.000%
same,Hylidae change in percent relative abundance,"gut microbiome [1]; ip, 50 mg/kg",0.000%
same,Kopriimonadaceae change in percent relative abundance,"gut microbiome [1]; ip, 50 mg/kg",0.000%
same,Lachnospiraceae change in percent relative abundance,"gut microbiome [1]; ip, 50 mg/kg",1.241%
same,Lactobacillaceae change in percent relative abundance,"gut microbiome [1]; ip, 50 mg/kg",9.667%
same,Leuconostocaceae change in percent relative abundance,"gut microbiome [1]; ip, 50 mg/kg",−0.001%
same,Methylobacteriaceae change in percent relative abundance,"gut microbiome [1]; ip, 50 mg/kg",0.000%
same,Microbacteriaceae change in percent relative abundance,"gut microbiome [1]; ip, 50 mg/kg",0.000%
same,Mucoraceae change in percent relative abundance,"gut microbiome [1]; ip, 50 mg/kg",0.000%
same,Nostocaceae change in percent relative abundance,"gut microbiome [1]; ip, 50 mg/kg",0.000%
same,Onagraceae change in percent relative abundance,"gut microbiome [1]; ip, 50 mg/kg",0.000%
same,Oscillatoriales change in percent relative abundance,"gut microbiome [1]; ip, 50 mg/kg",0.000%
same,Oscillospiraceae change in percent relative abundance,"gut microbiome [1]; ip, 50 mg/kg",−0.009%
same,Paenibacillaceae change in percent relative abundance,"gut microbiome [1]; ip, 50 mg/kg",−0.001%
same,Pasteurellaceae change in percent relative abundance,"gut microbiome [1]; ip, 50 mg/kg",0.000%
same,Pelobacteraceae change in percent relative abundance,"gut microbiome [1]; ip, 50 mg/kg",0.000%
same,Peptococcaceae change in percent relative abundance,"gut microbiome [1]; ip, 50 mg/kg",−0.885%
same,Peptoniphilaceae change in percent relative abundance,"gut microbiome [1]; ip, 50 mg/kg",0.000%
same,Peptostreptococcaceae change in percent relative abundance,"gut microbiome [1]; ip, 50 mg/kg",−0.194%
same,Physalacriaceae change in percent relative abundance,"gut microbiome [1]; ip, 50 mg/kg",0.000%
same,Poaceae change in percent relative abundance,"gut microbiome [1]; ip, 50 mg/kg",0.019%
same,Polyangiaceae change in percent relative abundance,"gut microbiome [1]; ip, 50 mg/kg",0.000%
same,Porphyromonadaceae change in percent relative abundance,"gut microbiome [1]; ip, 50 mg/kg",−0.221%
same,Prevotellaceae change in percent relative abundance,"gut microbiome [1]; ip, 50 mg/kg",−0.319%
same,Pseudomonadaceae change in percent relative abundance,"gut microbiome [1]; ip, 50 mg/kg",0.000%
same,Rhizobiaceae change in percent relative abundance,"gut microbiome [1]; ip, 50 mg/kg",0.000%
same,Rhodobacteraceae change in percent relative abundance,"gut microbiome [1]; ip, 50 mg/kg",0.000%
same,Rikenellaceae change in percent relative abundance,"gut microbiome [1]; ip, 50 mg/kg",−4.710%
same,Ruminococcaceae change in percent relative abundance,"gut microbiome [1]; ip, 50 mg/kg",1.486%
same,Sphingomonadaceae change in percent relative abundance,"gut microbiome [1]; ip, 50 mg/kg",0.000%
same,Spirochaetaceae change in percent relative abundance,"gut microbiome [1]; ip, 50 mg/kg",−0.074%
same,Spiroplasmataceae change in percent relative abundance,"gut microbiome [1]; ip, 50 mg/kg",−0.107%
same,Staphylococcaceae change in percent relative abundance,"gut microbiome [1]; ip, 50 mg/kg",0.004%
same,Streptococcaceae change in percent relative abundance,"gut microbiome [1]; ip, 50 mg/kg",2.055%
same,Thermoanaerobacteraceae change in percent relative abundance,"gut microbiome [1]; ip, 50 mg/kg",−0.018%
same,Veillonellaceae change in percent relative abundance,"gut microbiome [1]; ip, 50 mg/kg",0.000%
same,Verrucomicrobiaceae change in percent relative abundance,"gut microbiome [1]; ip, 50 mg/kg",−0.017%
same,Xanthomonadaceae change in percent relative abundance,"gut microbiome [1]; ip, 50 mg/kg",0.000%
same,Acholeplasmataceae change in percent relative abundance,"gut microbiome [1]; po, 50 mg/kg",0.005%
same,Candidatus saccharibacteria change in percent relative abundance,"gut microbiome [1]; po, 50 mg/kg",−0.043%
same,MIC,Treponema pallidum,0.03 µg/mL
same,Brucellaceae change in percent relative abundance,gut microbiome [2],0.000%
same,Francisellaceae change in percent relative abundance,gut microbiome [2],−0.001%
